# Reference: ChEMBL document CHEMBL5241112, “Insights into the recent progress in the medicinal chemistry of pyranopyrimidine analogs” (RSC Med Chem, 2022)
# Experiments:
# [1] = Antioxidant activity assessed as H2O2 radical scavenging activity; type: functional
# Staphylococcus aureus [2] = experiment: Antimicrobial activity against Staphylococcus aureus assessed as diameter of inhibition zone at 1 mg/ml incubated for 48 hrs by agar disk diffusion method; type: functional; details: read-out: DIZ
# Pseudomonas aeruginosa [3] = experiment: Antimicrobial activity against Pseudomonas aeruginosa assessed as diameter of inhibition zone at 1 mg/ml incubated for 48 hrs by agar disk diffusion method; type: functional; details: read-out: DIZ
# Bacillus cereus [4] = experiment: Antimicrobial activity against Bacillus cereus assessed as diameter of inhibition zone at 1 mg/ml incubated for 48 hrs by agar disk diffusion method; type: functional; details: read-out: DIZ
# Penicillium chrysogenum = experiment: Antifungal activity against Penicillium chrysogenum assessed as diameter of inhibition zone at 1 mg/ml incubated for 72 to 91 hrs by agar disk diffusion method; type: functional; details: time 72-91 hrs, read-out: DIZ
# Klebsiella pneumoniae [5] = experiment: Antimicrobial activity against Klebsiella pneumoniae assessed as diameter of inhibition zone at 1 mg/ml incubated for 48 hrs by agar disk diffusion method; type: functional; details: read-out: DIZ
# Escherichia coli [6] = experiment: Antimicrobial activity against Escherichia coli assessed as diameter of inhibition zone at 1 mg/ml incubated for 48 hrs by agar disk diffusion method; type: functional; details: read-out: DIZ
# Aspergillus niger = experiment: Antifungal activity against Aspergillus niger assessed as diameter of inhibition zone at 1 mg/ml incubated for 72 to 91 hrs by agar disk diffusion method; type: functional; details: time 72-91 hrs, read-out: DIZ
# Capra hircus = organism: Capra hircus; experiment: Inhibition of goat lens AR at 100 uM incubated for 10 mins in presence of NADPH by spectroscopic analysis
# [7] = Antioxidant activity assessed as DPPH radical scavenging activity incubated for 20 mins by spectrophotometric analysis; type: functional; parameters: concentration or dose not given beside the values
# [8] = Antioxidant activity assessed as hydroxyl radical scavenging activity incubated for 5 mins by spectrophotometric analysis; type: functional; parameters: concentration or dose not given beside the values
# Urease = Urease (Canavalia ensiformis, UniProt P07374); experiment: Inhibition of jack bean urease by phenol red method
# Sequence of Urease (P07374 whole entry): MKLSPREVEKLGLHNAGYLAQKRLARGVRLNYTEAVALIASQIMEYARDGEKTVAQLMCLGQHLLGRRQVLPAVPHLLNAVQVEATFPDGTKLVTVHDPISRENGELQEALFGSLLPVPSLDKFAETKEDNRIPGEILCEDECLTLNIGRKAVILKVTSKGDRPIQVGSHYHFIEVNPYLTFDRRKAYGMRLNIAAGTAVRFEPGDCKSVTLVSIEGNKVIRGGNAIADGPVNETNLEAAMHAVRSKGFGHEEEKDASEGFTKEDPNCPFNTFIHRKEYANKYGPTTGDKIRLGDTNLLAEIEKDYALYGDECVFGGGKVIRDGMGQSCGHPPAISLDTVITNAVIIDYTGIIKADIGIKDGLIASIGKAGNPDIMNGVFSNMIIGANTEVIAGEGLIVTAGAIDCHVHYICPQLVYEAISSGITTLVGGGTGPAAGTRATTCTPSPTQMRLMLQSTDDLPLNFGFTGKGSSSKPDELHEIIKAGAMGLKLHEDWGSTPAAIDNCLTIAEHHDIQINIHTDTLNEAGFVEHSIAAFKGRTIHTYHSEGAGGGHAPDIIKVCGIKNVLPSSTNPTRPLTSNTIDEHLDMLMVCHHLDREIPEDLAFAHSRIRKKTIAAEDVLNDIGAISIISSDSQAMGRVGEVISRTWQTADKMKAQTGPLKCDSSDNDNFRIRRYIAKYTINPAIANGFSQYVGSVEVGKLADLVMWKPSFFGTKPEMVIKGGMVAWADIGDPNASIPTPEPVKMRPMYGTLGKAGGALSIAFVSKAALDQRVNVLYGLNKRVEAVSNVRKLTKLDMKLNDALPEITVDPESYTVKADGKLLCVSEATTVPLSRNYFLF
# Bacillus subtilis = experiment: Antibacterial activity against Bacillus subtilis assessed as diameter of inhibition zone; type: functional
# Salmonella typhimurium = experiment: Antibacterial activity against Salmonella typhimurium assessed as diameter of inhibition zone; type: functional, Salmonella enterica subsp. enterica serovar Typhimurium
# Candida albicans = experiment: Antifungal activity against Candida albicans assessed as fungal growth inhibition by broth microdilution method; type: functional
# Aspergillus flavus = experiment: Antifungal activity against Aspergillus flavus assessed as fungal growth inhibition by broth microdilution method; type: functional
# [9] = Antioxidant activity assessed as NO radical scavenging activity; type: functional
# Bacillus cereus [10] = experiment: Antimicrobial activity against Bacillus cereus ATCC14579 assessed as diameter of inhibition zone at 20 mg/ml incubated for 24 hrs by disk diffusion method; type: functional; details: read-out: DIZ
# Escherichia coli [11] = experiment: Antibacterial activity against Escherichia coli assessed as diameter of inhibition zone; type: functional
# Staphylococcus aureus [12] = experiment: Antibacterial activity against Staphylococcus aureus assessed as diameter of inhibition zone; type: functional
# Staphylococcus aureus [13] = experiment: Antimicrobial activity against Staphylococcus aureus NCTC7447 assessed as diameter of inhibition zone at 20 mg/ml incubated for 24 hrs by disk diffusion method; type: functional; details: read-out: DIZ
# Pseudomonas aeruginosa [14] = experiment: Antimicrobial activity against Pseudomonas aeruginosa ATCC 27853 assessed as diameter of inhibition zone at 20 mg/ml incubated for 24 hrs by disk diffusion method; type: functional; details: read-out: DIZ
# Klebsiella pneumoniae [15] = experiment: Antimicrobial activity against Klebsiella pneumoniae UC57 assessed as diameter of inhibition zone at 20 mg/ml incubated for 24 hrs by disk diffusion method; type: functional; details: read-out: DIZ
# Escherichia coli [16] = experiment: Antimicrobial activity against Escherichia coli ATCC 14169 assessed as diameter of inhibition zone at 20 mg/ml incubated for 24 hrs by disk diffusion method; type: functional; details: read-out: DIZ
# HeLa = experiment: Anticancer activity against human HeLa cells assessed as reduction in cell viability incubated for 48 hrs by MTT assay; type: functional, cell-based
# MCF7 = experiment: cells; details: Homo sapiens, MCF7, 48 h
compound,measurement,setting,value
COc1ccc(C2C(C#N)=C(N)Oc3cc(O)ccc32)cc1 (stereo unspecified),IC50,[1],53.54 µg/mL
COC(=O)C1=C(N)Oc2[nH]c(=S)[nH]c(=O)c2C1c1ccc(OC)cc1 (stereo unspecified),zone of inhibition at 1000 µg/mL,Staphylococcus aureus [2],16 mm
same,zone of inhibition at 1000 µg/mL,Pseudomonas aeruginosa [3],16 mm
same,zone of inhibition at 1000 µg/mL,Bacillus cereus [4],19 mm
same,zone of inhibition at 1000 µg/mL,Penicillium chrysogenum,12 mm
same,zone of inhibition at 1000 µg/mL,Klebsiella pneumoniae [5],18 mm
same,zone of inhibition at 1000 µg/mL,Escherichia coli [6],15 mm
COC(=O)C1=C(N)Oc2[nH]c(=S)[nH]c(=O)c2C1c1ccc(O)cc1 (stereo unspecified),zone of inhibition at 1000 µg/mL,Staphylococcus aureus [2],21 mm
same,zone of inhibition at 1000 µg/mL,Pseudomonas aeruginosa [3],18 mm
same,zone of inhibition at 1000 µg/mL,Bacillus cereus [4],18 mm
same,zone of inhibition at 1000 µg/mL,Penicillium chrysogenum,23 mm
same,zone of inhibition at 1000 µg/mL,Klebsiella pneumoniae [5],22 mm
same,zone of inhibition at 1000 µg/mL,Escherichia coli [6],21 mm
same,zone of inhibition at 1000 µg/mL,Aspergillus niger,23 mm
O=c1[nH]c2c(c(=O)[nH]1)Oc1c(c(=O)oc3ccccc13)C2c1ccccc1Cl (stereo unspecified),inhibition,Capra hircus,46%
same,Activity,[7],72.4%
same,Activity,[8],67.2%
COC(=O)C1=C(N)Oc2[nH]c(=S)[nH]c(=O)c2C1c1ccccc1 (stereo unspecified),zone of inhibition at 1000 µg/mL,Staphylococcus aureus [2],12 mm
same,zone of inhibition at 1000 µg/mL,Pseudomonas aeruginosa [3],19 mm
same,zone of inhibition at 1000 µg/mL,Bacillus cereus [4],18 mm
same,zone of inhibition at 1000 µg/mL,Klebsiella pneumoniae [5],21 mm
same,zone of inhibition at 1000 µg/mL,Escherichia coli [6],17 mm
same,zone of inhibition at 1000 µg/mL,Aspergillus niger,12 mm
COc1ccc(C2c3[nH]c(=O)[nH]c(=O)c3Oc3c2c(=O)oc2ccccc32)cc1 (stereo unspecified),inhibition,Capra hircus,44%
same,Activity,[7],59.1%
same,Activity,[8],54.3%
COC(=O)C1=C(N)Oc2[nH]c(=S)[nH]c(=O)c2C1c1ccccc1Cl (stereo unspecified),zone of inhibition at 1000 µg/mL,Staphylococcus aureus [2],11 mm
same,zone of inhibition at 1000 µg/mL,Pseudomonas aeruginosa [3],4 mm
same,zone of inhibition at 1000 µg/mL,Penicillium chrysogenum,0 mm
same,zone of inhibition at 1000 µg/mL,Escherichia coli [6],9 mm
same,zone of inhibition at 1000 µg/mL,Aspergillus niger,0 mm
Cc1ccc(C2C(C#N)=C(N)Oc3[nH]c(=O)[nH]c(=O)c32)cc1 (stereo unspecified),IC50,Urease,71.9 µM
same,diameter of the inhibition zone (DIZ),Bacillus subtilis,10 mm
same,diameter of the inhibition zone (DIZ),Salmonella typhimurium,8 mm
OC(Cn1cncn1)(Cn1cncn1)c1ccc(F)cc1F [FLUCONAZOLE],MIC,Candida albicans,1.56 µg/mL
same,MIC,Aspergillus flavus,1.56 µg/mL
COC(=O)C1=C(N)Oc2[nH]c(=S)[nH]c(=O)c2C1c1ccc(C)cc1 (stereo unspecified),zone of inhibition at 1000 µg/mL,Staphylococcus aureus [2],15 mm
same,zone of inhibition at 1000 µg/mL,Pseudomonas aeruginosa [3],21 mm
same,zone of inhibition at 1000 µg/mL,Bacillus cereus [4],12 mm
same,zone of inhibition at 1000 µg/mL,Penicillium chrysogenum,23 mm
same,zone of inhibition at 1000 µg/mL,Klebsiella pneumoniae [5],19 mm
same,zone of inhibition at 1000 µg/mL,Escherichia coli [6],16 mm
same,zone of inhibition at 1000 µg/mL,Aspergillus niger,23 mm
Nc1ncnc2c1C(c1cc(Cl)ccc1O)c1ccc(O)cc1O2 (stereo unspecified),IC50,[9],50.32 µg/mL
N#CC1=C(N)Oc2[nH]c(=O)[nH]c(=O)c2C1c1ccc(Cl)cc1Cl (stereo unspecified),IC50,Urease,19.5 µM
O=c1[nH]c2c(c(=O)[nH]1)Oc1c(c(=O)oc3ccccc13)C2c1ccc([N+](=O)[O-])cc1 (stereo unspecified),inhibition,Capra hircus,39%
same,Activity,[7],59.1%
same,Activity,[8],54.3%
CCOc1ccc(C2C(C#N)=C(N)Oc3cc(O)ccc32)cc1 (stereo unspecified),IC50,[1],53.54 µg/mL
N#CC1=C(N)Oc2[nH]c(=O)[nH]c(=O)c2C1c1cccc([N+](=O)[O-])c1 (stereo unspecified),zone of inhibition at 20000 µg/mL,Bacillus cereus [10],14 mm
same,IC50,Urease,98.9 µM
same,diameter of the inhibition zone (DIZ),Escherichia coli [11],10 mm
same,diameter of the inhibition zone (DIZ),Bacillus subtilis,12 mm
same,diameter of the inhibition zone (DIZ),Staphylococcus aureus [12],14 mm
same,zone of inhibition at 20000 µg/mL,Staphylococcus aureus [13],7 mm
same,zone of inhibition at 20000 µg/mL,Pseudomonas aeruginosa [14],11 mm
same,zone of inhibition at 20000 µg/mL,Klebsiella pneumoniae [15],6 mm
same,diameter of the inhibition zone (DIZ),Salmonella typhimurium,14 mm
same,zone of inhibition at 20000 µg/mL,Escherichia coli [16],11 mm
N#CC1=C(N)Oc2cc(O)ccc2C1c1ccco1 (stereo unspecified),IC50,[9],50.32 µg/mL
O=C1Nc2c(c(=O)oc3ccccc23)C(c2ccccc2O)N1 (stereo unspecified),IC50,HeLa,38 µM
same,IC50,MCF7,38 µM
COC(=O)C1=C(N)Oc2[nH]c(=S)[nH]c(=O)c2C1c1cccc(Cl)c1 (stereo unspecified),zone of inhibition at 1000 µg/mL,Staphylococcus aureus [2],10 mm
same,zone of inhibition at 1000 µg/mL,Pseudomonas aeruginosa [3],9 mm
same,zone of inhibition at 1000 µg/mL,Bacillus cereus [4],12 mm
same,zone of inhibition at 1000 µg/mL,Klebsiella pneumoniae [5],11 mm
same,zone of inhibition at 1000 µg/mL,Escherichia coli [6],8 mm
same,zone of inhibition at 1000 µg/mL,Aspergillus niger,12 mm
O=c1[nH]c2c(c(=O)[nH]1)Oc1c(c(=O)oc3ccccc13)C2c1cccc([N+](=O)[O-])c1 (stereo unspecified),inhibition,Capra hircus,59%
same,Activity,[7],59.1%
same,Activity,[8],54.3%
